Data from patent US12673946B2, “Pyrimidin-4(3H)-one derivatives as TRPV4 antagonists” (RaQualia Pharma Inc., priority 2020, dated 2026).

Biological target: T1, human TRPV4 (Homo sapiens, UniProt Q9HBA0)
T1 construct: host or cells: tetracycline-inducible Flp-In T-REx 293 cells
Test: Hypotonicity-induced Ca2+ influx (Fluo-4, FDSS)
Type: cell-based
In short: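 Flp-In T-REx 293 cells with tetracycline-induced human TRPV4, loaded with Fluo-4 for 60 min at 25 °C. Compound added 5 min before hypotonic mannitol/CaCl2 solution. Ca2+ signal recorded for 4.5 min on FDSS.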

[1] = Flp-In T-REx 293 cells expressing human TRPV4, examples listed under heading 'Human IC50<50 nM'
[2] = Flp-In T-REx 293 cells stably expressing human TRPV4, compounds listed by potency bin (<10 nM Tables 96-1/96-2, <3 nM Table 97)

T1 sequence (Q9HBA0 whole entry): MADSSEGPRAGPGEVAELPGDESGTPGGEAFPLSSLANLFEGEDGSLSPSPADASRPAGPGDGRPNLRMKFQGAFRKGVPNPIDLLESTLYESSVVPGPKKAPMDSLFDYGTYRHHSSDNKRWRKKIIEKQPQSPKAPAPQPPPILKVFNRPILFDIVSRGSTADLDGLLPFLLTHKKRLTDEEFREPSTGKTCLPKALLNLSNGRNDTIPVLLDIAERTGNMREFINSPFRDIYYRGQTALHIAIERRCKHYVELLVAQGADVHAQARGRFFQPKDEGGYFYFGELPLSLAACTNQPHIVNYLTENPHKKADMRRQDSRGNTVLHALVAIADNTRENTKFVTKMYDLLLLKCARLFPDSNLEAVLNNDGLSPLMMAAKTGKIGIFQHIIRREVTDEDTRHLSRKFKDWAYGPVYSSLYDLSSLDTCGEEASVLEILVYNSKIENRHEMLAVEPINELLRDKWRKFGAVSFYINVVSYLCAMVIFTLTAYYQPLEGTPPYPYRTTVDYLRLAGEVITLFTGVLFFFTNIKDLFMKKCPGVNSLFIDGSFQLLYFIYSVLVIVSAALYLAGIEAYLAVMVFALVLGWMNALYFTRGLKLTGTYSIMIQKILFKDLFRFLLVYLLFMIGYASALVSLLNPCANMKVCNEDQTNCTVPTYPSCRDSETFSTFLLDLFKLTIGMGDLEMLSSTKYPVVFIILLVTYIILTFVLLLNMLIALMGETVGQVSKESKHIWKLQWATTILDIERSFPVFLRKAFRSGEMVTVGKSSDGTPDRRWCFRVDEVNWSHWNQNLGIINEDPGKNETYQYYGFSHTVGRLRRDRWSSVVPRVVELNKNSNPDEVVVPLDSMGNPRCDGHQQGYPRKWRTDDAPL

Row | SMILES | IC50 [1] [nM] | IC50 [2] [nM]
1 | O=C(C(O)c1cccc(-c2ccc(C(F)(F)F)nc2)c1)N1CCc2nc(C3(c4ccccc4)CC3)[nH]c(=O)c2C1 (stereo not shown) [44-41] | < 50 | –
2 | O=C([C@H](O)c1cccc(Cl)c1)N1CCc2nc(C3(c4cccc(-c5cnsc5)c4)CC3)[nH]c(=O)c2C1 [34-2] | < 50 | < 10
3 | O=C(C(O)c1cccc(SC(F)(F)F)c1)N1CCc2nc(C3(c4cccc(Cl)c4)CC3)[nH]c(=O)c2C1 (stereo not shown) [14-18] | < 50 | –
4 | O=C([C@H](O)c1cccc(-c2ccc3c(c2)OC(F)(F)O3)c1)N1CCCc2nc(C3(c4cccc(Cl)c4)CC3)[nH]c(=O)c2C1 [50-15] | < 50 | < 3
5 | O=C(C(O)c1cccc(-c2ccccc2C(F)(F)F)c1)N1CCc2nc(C3(c4ccccc4)CC3)[nH]c(=O)c2C1 (stereo not shown) [44-54] | < 50 | –
6 | CC(C)(C)c1cccc(-c2cccc([C@@H](O)C(=O)N3CCCc4nc(C5(c6cncc(C7CCCCC7)c6)CC5)[nH]c(=O)c4C3)c2)c1 [55-12] | < 50 | < 10
7 | O=C([C@H](O)c1cccc(-c2cc(Cl)ccc2Cl)c1)N1CCCc2nc(C3(c4ccccc4)CC3)[nH]c(=O)c2C1 [49-43] | < 50 | < 10
8 | O=C([C@H](O)c1cccc(C(F)(F)F)c1)N1CCCc2nc(C3(c4cccc(-c5cc6ccccc6s5)c4)CC3)[nH]c(=O)c2C1 [42-29] | < 50 | < 10
9 | CC(C)c1csc(C2(c3nc4c(c(=O)[nH]3)CN(C(=O)[C@H](O)c3cccc(-c5cccc(Cl)c5)c3)CCC4)CC2)c1 [54-3] | < 50 | < 10
10 | CC(C)c1cccc(-c2cccc([C@@H](O)C(=O)N3CCCc4c(nc(C5(c6ccccc6)CC5)[nH]c4=O)C3)c2)c1 [49-57] | < 50 | –
